Where a name gives a salt, the structure may show the parent alone. Read-outs that look alike come from different tables or passages of the source.
Experiments:
Human DYRK1B = biological target: T1, Human DYRK1B (Homo sapiens, UniProt Q9Y463); assay: DYRK1B Kinase TR-FRET (IMAP-Tb) Assay; type: biochemical; conditions: TR-FRET (IMAP-Tb); ATP 70 μM; 37° C. 60 minutes; read-out: Enzyme IC50 (μM) DYRK1B
T1 construct: purchased Invitrogen PR8350B (former PV4649)

Human DYRK1A = biological target: T2, Human DYRK1A (Homo sapiens, UniProt Q13627); assay: DYRK1A Kinase TR-FRET (IMAP-Tb) Assay; type: biochemical; conditions: TR-FRET (IMAP-Tb); ATP 70 μM; 37° C. 60 minutes; read-out: Enzyme IC50 (μM) DYRK1A
T2 construct: purchased Invitrogen PV3997
Summary of the method: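 Recombinant human DYRK1A phosphorylated fluorescent substrate peptide (1.0 μM) with ATP in 10 mM HEPES pH 7.0, 50 mM NaCl, 5 mM MgCl2, 1 mM DTT, 1 mM NaVO4, 0.02% BSA for 60 min at 37 °C. Phosphopeptide detected by IMAP terbium TR-FRET; IC50 reported.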

[1] = system: SW620 human colon cancer cells; assay: SW620 Cell Viability Assay; type: cell-based; conditions: CellTiter-Glo, 4 days incubation, read-out: Cellular EC50 (μM) SW620
Description: Some cells (S—) were allowed to attach for 24 hrs, serum starved for 48 hrs, and then followed with drug treatments Test Compound Solutions were Prepared in Regular Corresponding Media Supplemented with Serum 2. […] Viability Assay: This assay was performed as follows: • Transfer 50 μL of test compound solution per well from the test compound plate onto the cell plate prepared in Step #1. • Mix the plate with treated cells by pipetting up and down three times with 200 μL multi-channel pipette. • Incubate the cells in 5% CO2 incubator @ 37° C. for 4 days. • Run the CellTiter-Glo™ Luminescent Cell Viability Assay.

T1 sequence (Q9Y463 whole entry): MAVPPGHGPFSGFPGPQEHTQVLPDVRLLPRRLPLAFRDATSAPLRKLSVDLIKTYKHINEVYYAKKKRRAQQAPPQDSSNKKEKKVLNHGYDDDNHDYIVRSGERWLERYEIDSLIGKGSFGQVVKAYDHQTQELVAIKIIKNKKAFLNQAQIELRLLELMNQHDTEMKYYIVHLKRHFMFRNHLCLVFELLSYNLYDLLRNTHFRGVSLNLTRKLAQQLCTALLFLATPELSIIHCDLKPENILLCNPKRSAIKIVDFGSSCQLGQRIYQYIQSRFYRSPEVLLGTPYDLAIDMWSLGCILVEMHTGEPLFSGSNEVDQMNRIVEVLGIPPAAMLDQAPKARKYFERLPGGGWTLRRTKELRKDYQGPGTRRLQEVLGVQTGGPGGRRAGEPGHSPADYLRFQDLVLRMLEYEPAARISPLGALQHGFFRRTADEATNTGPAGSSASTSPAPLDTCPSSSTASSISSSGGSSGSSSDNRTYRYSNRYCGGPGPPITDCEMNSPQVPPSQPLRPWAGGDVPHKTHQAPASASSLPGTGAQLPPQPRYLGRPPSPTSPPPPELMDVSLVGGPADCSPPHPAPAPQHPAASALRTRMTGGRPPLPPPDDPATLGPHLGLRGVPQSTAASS

| SMILES | IC50 (Human DYRK1B) [µM] | IC50 (Human DYRK1A) [µM] | EC50 ([1]; Homo sapiens, SW-620, 96 h) [µM] | EC50 [1] [µM] | EC50 ([1]; hydrochloride) [µM] |
| --- | --- | --- | --- | --- | --- |
| O=C(NCc1cccc(Cl)c1)c1ccc(Cl)c(NC(=O)c2cc3cnc(N4CCOCC4)nc3[nH]c2=O)c1 [Example 86, 2-Morpholin-4-yl-7-oxo-7,8-dihydro-pyrido[2,3-d]pyrimidine-6-carboxylic acid [2-chloro-5-(3-chloro-benzylcarbamoyl)-phenyl]-amide] | 3.25 | 0.07 | > 10 |  |  |
| CN1CCN(CCOc2ncc3cc(C(=O)Nc4cc(C(=O)NCc5cccc(Cl)c5)ccc4Cl)c(=O)[nH]c3n2)CC1 [Example 87, 2-[2-(4-Methyl-piperazin-1-yl)-ethoxy]-7-oxo-7,8-dihydro-pyrido[2,3-d]pyrimidine-6-carboxylic acid [2-chloro-5-(3-chloro-benzylcarbamoyl)-phenyl]amide] | 0.0859 | 0.061 | 0.186 |  |  |
| O=C(NCc1cccc(Cl)c1)c1ccc(Cl)c(NC(=O)c2cc3cnc(NCCN4CCCC4)nc3[nH]c2=O)c1 [Example 89, 7-Oxo-2-(2-pyrrolidin-1-yl-ethylamino)-7,8-dihydro-pyrido[2,3-d]pyrimidine-6-carboxylic acid [2-chloro-5-(3-chloro-benzylcarbamoyl)-phenyl]amide] | 0.023 | 0.0189 | 0.192 |  |  |
| O=C(NCc1cccc(Cl)c1)c1ccc(Cl)c(NC(=O)c2cc3cnc(NCCCN4CCOCC4)nc3[nH]c2=O)c1 [Example 90, 2-(3-Morpholin-4-yl-propylamino)-7-oxo-7,8-dihydro-pyrido[2,3-d]pyrimidine-6-carboxylic acid [2-chloro-5-(3-chloro-benzylcarbamoyl)-phenyl]amide] | 0.0523 | 0.0113 | 0.312 |  |  |
| O=C(NCc1cccc(Cl)c1)c1ccc(Cl)c(NC(=O)c2cc3cnc(N[C@H]4CC[C@H](O)CC4)nc3[nH]c2=O)c1 [Example 94, 2-(4-Hydroxy-cyclohexylamino)-7-oxo-7,8-dihydro-pyrido[2,3-d]pyrimidine-6-carboxylic acid [2-chloro-5-(3-chloro-benzylcarbamoyl)-phenyl]amide] | 0.0622 | 0.0245 | 1.13 |  |  |
| O=C(NCc1cccc(Cl)c1)c1ccc(Cl)c(NC(=O)c2cc3cnc(N[C@H]4CC[C@@H](O)CC4)nc3[nH]c2=O)c1 [Example 95, 2-(4-Hydroxy-cyclohexylamino)-7-oxo-7,8-dihydro-pyrido[2,3-d]pyrimidine-6-carboxylic acid [2-chloro-5-(3-chloro-benzylcarbamoyl)-phenyl]amide] | 0.012 | 0.0257 | 0.406 |  |  |
| NC1CCN(c2ncc3cc(C(=O)Nc4cc(C(=O)NCc5cccc(Cl)c5)ccc4Cl)c(=O)[nH]c3n2)CC1 [Example 97, 2-(4-Amino-piperidin-1-yl)-7-oxo-7,8-dihydro-pyrido[2,3-d]pyrimidine-6-carboxylic acid [2-chloro-5-(3-chloro-benzylcarbamoyl)-phenyl]-amide] | 0.0819 | 0.0448 | 0.0662 |  |  |
| CN1CCN(CCNc2ncc3cc(C(=O)Nc4cc(C(=O)NCc5cccc(Cl)c5)ccc4Cl)c(=O)[nH]c3n2)CC1 [Example 99, 2-[2-(4-Methyl-piperazin-1-yl)-ethylamino]-7-oxo-7,8-dihydro-pyrido[2,3-d]pyrimidine-6-carboxylic acid [2-chloro-5-(3-chloro-benzylcarbamoyl)-phenyl]amide] | 0.0347 | 0.0202 |  | 0.0276 |  |
| CN1CCN(CCNc2ncc3cc(C(=O)Nc4cc(C(=O)NCc5cccc(Cl)c5)ccc4Cl)c(=O)[nH]c3n2)CC1 [Example 100, N-(2-chloro-5-(3-chlorobenzylcarbamoyl)phenyl)-2-(2-(4-methylpiperazin-1-yl)ethylamino)-7-oxo-7,8-dihydropyrido[2,3-d]pyrimidine-6-carboxamide hydrochloride] | 0.142 | 0.0381 |  |  | 0.068 |
| CN1CCN(CCCNc2ncc3cc(C(=O)Nc4cc(C(=O)NCc5cccc(Cl)c5)ccc4Cl)c(=O)[nH]c3n2)CC1 [Example 101, 2-[3-(4-Methyl-piperazin-1-yl)-propylamino]-7-oxo-7,8-dihydro-pyrido[2,3-d]pyrimidine-6-carboxylic acid [2-chloro-5-(3-chloro-benzylcarbamoyl)-phenyl]amide] | 0.0221 | 0.0263 | 0.0663 |  |  |
| CN1CCN(CCCNc2ncc3cc(C(=O)Nc4cc(C(=O)NCc5cccc(Cl)c5)ccc4Cl)c(=O)[nH]c3n2)CC1 [Example 102, 2-[3-(4-Methyl-piperazin-1-yl)-propylamino]-7-oxo-7,8-dihydro-pyrido[2,3-d]pyrimidine-6-carboxylic acid [2-chloro-5-(3-chloro-benzylcarbamoyl)-phenyl]-amide hydrochloride] | 0.047 | 0.0356 |  |  | 0.0531 |
| O=C(NCc1cccc(Cl)c1)c1ccc(Cl)c(NC(=O)c2cc3cnc(NCCO)nc3[nH]c2=O)c1 [Example 103, N-(2-chloro-5-(3-chlorobenzylcarbamoyl)phenyl)-2-(2-hydroxyethylamino)-7-oxo-7,8-dihydropyrido[2,3-d]pyrimidine-6-carboxamide] | 0.0291 | 0.00974 | > 10 |  |  |
| CN1CCC(CCNc2ncc3cc(C(=O)Nc4cc(C(=O)NCc5cccc(Cl)c5)ccc4Cl)c(=O)[nH]c3n2)CC1 [Example 104, N-(2-chloro-5-(3-chlorobenzylcarbamoyl)phenyl)-2-(2-(1-methylpiperidin-4-yl)ethylamino)-7-oxo-7,8-dihydropyrido[2,3-d]pyrimidine-6-carboxamide] | 0.0613 | 0.0226 | 0.0787 |  |  |
| CSc1ncc2cc(C(=O)Nc3cc(C(=O)NC(CN)c4ccccc4)ccc3Cl)c(=O)[nH]c2n1 (stereo not drawn) [Example 105, N-(5-(2-amino-1-phenylethylcarbamoyl)-2-chlorophenyl)-2-(methylthio)-7-oxo-7,8-dihydropyrido[2,3-d]pyrimidine-6-carboxamide] | 0.0099 | 0.0096 | 0.296 |  |  |
| CSc1ncc2cc(C(=O)Nc3cc(C(=O)NC(CCN)c4ccccc4)ccc3Cl)c(=O)[nH]c2n1 (stereo not drawn) [Example 107, 2-Methylsulfanyl-7-oxo-7,8-dihydro-pyrido[2,3-d]pyrimidine-6-carboxylic acid [5-(3-amino-1-phenyl-propylcarbamoyl)-2-chloro-phenyl]-amide; hydrochloride] | 0.0105 | 0.00467 | 0.236 |  |  |
| CC(=O)N1CCN(c2ncc3cc(C(=O)Nc4cc(C(=O)NCc5cccc(Cl)c5)ccc4Cl)c(=O)[nH]c3n2)CC1 [Example 108, 2-(4-Acetylpiperazin-1-yl)-N-(2-chloro-5-(3-chlorobenzylcarbamoyl)phenyl)-7-oxo-7,8-dihydropyrido[2,3-d]pyrimidine-6-carboxamide] | 0.056 | 0.114 | 0.528 |  |  |
| Cc1ncc2cc(C(=O)Nc3cc(C(=O)NC(CN)c4ccccc4)ccc3Cl)c(=O)[nH]c2n1 (stereo not drawn) [Example 114, N-(5-(2-Amino-1-phenylethylcarbamoyl)-2-chlorophenyl)-2-methyl-7-oxo-7,8-dihydropyrido[2,3-d]pyrimidine-6-carboxamide hydrochloride] | 0.0146 | 0.0373 | 1.32 |  |  |
| N[C@H]1CC[C@@H](Nc2ncc3cc(C(=O)Nc4cc(C(=O)NCc5cccc(Cl)c5)ccc4Cl)c(=O)[nH]c3n2)CC1 [Example 118, 2-((1s,4 s)-4-Aminocyclohexylamino)-N-(2-chloro-5-(3-chlorobenzylcarbamoyl)phenyl)-7-oxo-7,8-dihydropyrido[2,3-d]pyrimidine-6-carboxamide hydrochloride] | 0.0767 | 0.0569 | 0.438 |  |  |
| O=C(NCc1cccc(Cl)c1)c1ccc(Cl)c(NC(=O)c2cc3cnc(N4CCNCC4)nc3[nH]c2=O)c1 [Example 119, N-(2-Chloro-5-(3-chlorobenzylcarbamoyl)phenyl)-7-oxo-2-(piperazin-1-yl)-7,8-dihydropyrido[2,3-d]pyrimidine-6-carboxamide hydrochloride] | 0.135 | 0.044 | 0.152 |  |  |
| CN1CCN(CCCNc2ncc3cc(C(=O)Nc4cc(C(=O)NC(CN)c5ccccc5)ccc4Cl)c(=O)[nH]c3n2)CC1 (stereo not drawn) [Example 122, N-(5-(2-Amino-1-phenylethylcarbamoyl)-2-chlorophenyl)-2-(3-(4-methylpiperazin-1-yl)propylamino)-7-oxo-7,8-dihydropyrido[2,3-d]pyrimidine-6-carboxamide] | 0.009 | 0.012 | 0.359 |  |  |
| CN1CCN(CCCNc2ncc3cc(C(=O)Nc4cc(C(=O)NC(CN)c5ccccc5)ccc4Cl)c(=O)[nH]c3n2)CC1 (stereo not drawn) [Example 123, N-(5-(2-Amino-1-phenylethylcarbamoyl)-2-chlorophenyl)-2-(3-(4-methylpiperazin-1-yl)propylamino)-7-oxo-7,8-dihydropyrido[2,3-d]pyrimidine-6-carboxamide hydrochloride] | 0.0082 | 0.0067 |  |  | 0.319 |

From US20120184542A1, “PYRIDO PYRIMIDINES” (priority 2011, published 2012)
